What was measured:
T. cruzi Y strain = experiment: Antiparasitic activity on T. cruzi: image-based intracellular amastigote assay in infected U2OS cells; type: cell-based, Trypanosoma cruzi; settings: T. cruzi in U2OS host cells, 3 days, normalized by DMSO and benznidazole controls; for Inhibition norm. inf. ratio IC50: number of infected host cells; for IC50: Trypanosoma cruzi, 72 h, number of parasites in host cell cytoplasm, read-out: Inhibition norm. para. num. IC50
Experimental: All compounds isolated were tested against Trypanosoma cruzi and Leishmania donovani, using the liquid microdilution method. Madurastatins were not active against L. donovani at the highest concentration tested, showing IC50 values higher than 50 µM. […] Human osteosarcoma cell line U2OS (ATCC HTB-96) and rhesus monkey kidney epithelial cell LLM-MK2 (ATCC CCL-7) were purchased from the American Type Culture Collection (ATCC, Manassas, VA, USA). T. cruzi Y strain was maintained as tissue culture trypomastigotes (TCT) by infection to LLC-MK2 cell line. The U2OS human cell was cultivated in DMEM-high-glucose media supplemented with 10% heat-inactivated fetal bovine serum (FBS, Thermo Fisher Scientific, Waltham, MA, USA). To visualize amastigote replication, U2OS cells were seeded in a 384-well plate (4 × 10^3 cells/well) and infected with 5 × 10^4 TCT parasites in DMEM-low-glucose media supplemented with 2% heat-inactivated FBS as previously described. The reference drug 400 μM of benznidazole (positive control), 0.5% DMSO (negative control), and the tested samples were treated on the day of assay and then incubated for 3 days at 37 °C, 5% CO2. After incubation was completed, the cells and parasites were fixed with 4% paraformaldehyde (PFA), and the DNA was stained with 5 μM DRAQ5 (Biostatus, Shepshed, Leicestershire, UK) followed by image acquisition using an automated confocal microscope (Operetta CLS, PerkinElmer, Waltham, MA, USA) with a […] laser at 20× objective. The acquired images were analyzed with Columbus software (v2.3) (PerkinElmer) to quantify cell numbers, parasites numbers, and infection ratio. Data were normalized by positive and negative controls. The activity of the tested samples was determined in terms of IC50 and CC50 calculated with XLfit software (v5) (IDBS, Boston, MA, USA). The quality of the assay data was assessed with Z’ factor, assay windows, and CV [37].

U2OS cells = experiment: Host cell cytotoxicity (cell ratio) in the T. cruzi assay; type: cell-based, Human; settings: number of U2OS host cells in T. cruzi assay, 3 days
Excerpt: Human osteosarcoma cell line U2OS (ATCC HTB-96) and rhesus monkey kidney epithelial cell LLM-MK2 (ATCC CCL-7) were purchased from the American Type Culture Collection (ATCC, Manassas, VA, USA). T. cruzi Y strain was maintained as tissue culture trypomastigotes (TCT) by infection to LLC-MK2 cell line. The U2OS human cell was cultivated in DMEM-high-glucose media supplemented with 10% heat-inactivated fetal bovine serum (FBS, Thermo Fisher Scientific, Waltham, MA, USA). To visualize amastigote replication, U2OS cells were seeded in a 384-well plate (4 × 10^3 cells/well) and infected with 5 × 10^4 TCT parasites in DMEM-low-glucose media supplemented with 2% heat-inactivated FBS as previously described. The reference drug 400 μM of benznidazole (positive control), 0.5% DMSO (negative control), and the tested samples were treated on the day of assay and then incubated for 3 days at 37 °C, 5% CO2. After incubation was completed, the cells and parasites were fixed with 4% paraformaldehyde (PFA), and the DNA was stained with 5 μM DRAQ5 (Biostatus, Shepshed, Leicestershire, UK) followed by image acquisition using an automated confocal microscope (Operetta CLS, PerkinElmer, Waltham, MA, USA) with a […] laser at 20× objective.
(§1) The acquired images were analyzed with Columbus software (v2.3) (PerkinElmer) to quantify cell numbers, parasites numbers, and infection ratio. Data were normalized by positive and negative controls. The activity of the tested samples was determined in terms of IC50 and CC50 calculated with XLfit software (v5) (IDBS, Boston, MA, USA). The quality of the assay data was assessed with Z’ factor, assay windows, and CV [37].

[1] = test system: L. donovani MHOM/ET/67/HU3; experiment: Antiparasitic activity on L. donovani: image-based intracellular assay in infected differentiated THP-1 cells; type: cell-based, Leishmania donovani; settings: L. donovani in PMA-differentiated THP-1 host cells, 3 days, normalized by controls; for Inhibition norm. inf. ratio IC50: number of infected host cells; for IC50: Leishmania donovani, 72 h, number of parasites in host cell cytoplasm, read-out: Inhibition norm. para. num. IC50
Experimental: All compounds isolated were tested against Trypanosoma cruzi and Leishmania donovani, using the liquid microdilution method. Madurastatins were not active against L. donovani at the highest concentration tested, showing IC50 values higher than 50 µM.
(§2) Human monocyte cell line THP-1 (ATCC TIB-202) was purchased from the American Type Culture Collection (ATCC). The assay for activity against L. donovani was performed as previously described. L. donovani MHOM/ET/67/HU3 was cultivated as promastigotes at 28 °C in M199 (Sigma-Aldrich, St. Louis, MO, USA) with 40 mM HEPES, 0.1 mM adenine, 0.0001% biotin, and 4.62 mM NaHCO3, supplemented with 10% heat-inactivated FBS and incubated 6 days before infection to enrich the proportion of metacyclic promastigotes. THP-1 was cultivated in RPMI medium (Thermo Fisher Scientific) supplemented with 10% heat-inactivated FBS and differentiated with 50 ng/mL of phorbol 12-myristate 13-acetate (PMA, Sigma-Aldrich) before infection. Purified L. donovani parasites were seeded with 1:20 infection ratio in 384-well plates and incubated for 24 h, then followed by the treatment of 4 μM amphotericin B (Sigma-Aldrich) as positive control, 0.5% DMSO as negative control, and tested samples. After additional incubation for 3 days at 37 °C, 5% CO2, the cells and parasites were fixed with 4% PFA and stained with 5 μM DRAQ5. Fluorescent images were acquired from each well using an automated confocal microscope (Operetta CLS) with a […] laser at 20× objective.
as §1

THP-1 cells = experiment: Host cell cytotoxicity (cell ratio) in the L. donovani assay; type: cell-based, Human; settings: number of THP-1 host cells in L. donovani assay, 3 days
Experimental: as §2, §1

Compound | Inhibition norm. inf. ratio IC50 (T. cruzi Y strain) | IC50 (T. cruzi Y strain) | Cell ratio (%) CC50 (U2OS cells) | Inhibition norm. inf. ratio IC50 [1] | IC50 [1] | Cell ratio (%) CC50 (THP-1 cells)
C[C@@H]1N(C)[C@@H](CCCN(O)C(=O)CCNC(=O)CNC(=O)[C@H]2COC(c3ccccc3O)=N2)C(=O)N1[C@H]1CCCN(O)C1=O [33-epi D1 (3), 33-epi-madurastatin D1] | >50 µM | 46.1 µM | >50 µM | >50 µM | > 50 µM | >50 µM
CNC(CCCN(O)C(=O)CCNC(=O)CNC(=O)C1COC(c2ccccc2O)=N1)C(=O)NC1CCCN(O)C1=O (stereo not drawn) [C1 (1), madurastatin C1] | >50 µM | 30.8 µM | >50 µM | >50 µM | > 50 µM | >50 µM
CN1C(CCCN(O)C(=O)CCNC(=O)CNC(=O)C2COC(c3ccccc3O)=N2)C(=O)N(C2CCCN(O)C2=O)C1(C)C (stereo not drawn) [D2 (5), madurastatin D2] | >50 µM | 8.93 µM | 24.74 µM | >50 µM | > 50 µM | >50 µM
CN1[C@@H](CCCN(O)C(=O)CCNC(=O)CNC(=O)[C@@H](CO)NC(=O)c2ccccc2O)C(=O)N([C@H]2CCCN(O)C2=O)C1(C)C [H2 (2), madurastatin H2] | >50 µM | > 50 µM | >50 µM | >50 µM | > 50 µM | >50 µM
CC1N(C)C(CCCN(O)C(=O)CCNC(=O)CNC(=O)C2COC(c3ccccc3O)=N2)C(=O)N1C1CCCN(O)C1=O (stereo not drawn) [D1 (4), madurastatin D1] | >50 µM | 27.2 µM | 46.77 µM | >50 µM | > 50 µM | >50 µM

Reference: publication PMC10779116, “Madurastatins with Imidazolidinone Rings: Natural Products or Side-Reaction Products from Extraction Solvents?” (International Journal of Molecular Sciences, 2023)
